Test systems include A549; EKVX; HL-60; HOP-62; HOP-92; HT-29; Hs-578T; IGROV-1; MCF7; MDA-N; Malme-3M; NCI-H23; OVCAR-8; PC-3; RPMI-8226; SK-MEL-2; SK-MEL-5; U-251; SF-539; SR.
Common to all, as to assay: NCI tumour cell line growth inhibition, 48 h

SMILES strings stand for the structures.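 Protocol summary: plate cells (96-well), add compound at 5 concentrations, incubate 48 h, interpolate endpoints linearly. Abbreviation: GI50, concentration required for 50% inhibition of growth.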 Active and inactive are the calls of the source. Cut-off read from the data, not from the text of the source: active = GI50 up to about 1.1 µM and inactive = higher. Bounds are passed on as bounds.

Regarding `N#CC12C(=O)N3C(=NC(c4ccccc4)NC3c3ccccc3)C1(C#N)C(c1ccccc1)NC1=C2CCC1` (stereo not given), the GI50 in the assay on A549, in the assay on EKVX, in the assay with HL-60, with HOP-62, in the assay with HOP-92 and in the assay with HT-29 was > 100 µM (inactive) each time. In addition, the GI50 in the assay with Hs-578T, with IGROV-1, in the assay on MCF7, with MDA-N, with Malme-3M and in the assay with NCI-H23 was > 100 µM (inactive) each time. For the same compound, the GI50 with OVCAR-8, with PC-3, in the assay on RPMI-8226, in the assay with SK-MEL-2, in the assay on SK-MEL-5 and with U-251 was > 100 µM (inactive) in each case.
With `N#CCCOc1cccc(C2(N3CCCCC3)CCCCC2)c1`, the GI50 in the assay with A549, in the assay with EKVX, with HL-60, in the assay on HOP-62, in the assay on HT-29 and with Hs-578T was > 100 µM (inactive) in each case. For the same compound, the GI50 in the assay with IGROV-1, with MCF7, in the assay with Malme-3M, in the assay on NCI-H23, in the assay on OVCAR-8 and with PC-3 was > 100 µM (inactive) in each case. In addition, the GI50 in the assay on RPMI-8226, with SF-539, with SK-MEL-2, in the assay on SK-MEL-5, in the assay with SR and in the assay with U-251 was > 100 µM (inactive) throughout.
With `O=P(c1ccccc1)(c1ccccc1)C(NCc1ccccc1)c1ccc(F)cc1` (stereo not given), the GI50 with A549 is 15 µM (inactive); in the assay on EKVX, 12.7 µM (inactive); in the assay on HL-60 it was 17.5 µM (inactive); in the assay with HOP-62 it was 21.6 µM (inactive); in the assay on HOP-92, 12.9 µM (inactive); in the assay with HT-29 it was 13.2 µM (inactive). Besides, the GI50 with Hs-578T was 28.4 µM (inactive); in the assay on IGROV-1 it was 15.5 µM (inactive); in the assay with MDA-N it was 17.1 µM (inactive); in the assay on Malme-3M it was 17.9 µM (inactive); in the assay on NCI-H23 it was 13.6 µM (inactive); with OVCAR-8 it was 19 µM (inactive). For the same compound, the GI50 with RPMI-8226 is 25.9 µM (inactive); with SF-539, 17.7 µM (inactive); in the assay on SK-MEL-2, 15 µM (inactive); in the assay on SK-MEL-5, 15.9 µM (inactive); with SR, 15 µM (inactive); in the assay on U-251, 15.6 µM (inactive).
As to `CC(=O)OCC1OC(Nc2ccc3nc(C)n(-c4ccccc4)c(=O)c3c2)C(OC(C)=O)C(OC(C)=O)C1OC(C)=O` (stereo not given), the GI50 with EKVX is > 50 µM (inactive); with HL-60, 23.7 µM (inactive); with HOP-62, > 50 µM (inactive); with HT-29, > 50 µM (inactive); in the assay on Hs-578T, > 50 µM (inactive); in the assay with IGROV-1 it was > 50 µM (inactive). For the same compound, the GI50 in the assay on MCF7, in the assay with MDA-N, with Malme-3M, in the assay on NCI-H23, with OVCAR-8 and with PC-3 was > 50 µM (inactive) each time. For the same compound, the GI50 in the assay on RPMI-8226 is 5.61 µM (inactive); with SK-MEL-2, > 50 µM (inactive); in the assay with SK-MEL-5, > 50 µM (inactive); in the assay on SR, 24.1 µM (inactive); in the assay with U-251 it was > 50 µM (inactive).
In the case of `N#Cc1c(N)c(-c2ccc(Cl)cc2)c(F)c2ccccc12`, the GI50 with A549 was > 100 µM (inactive); with EKVX it was 7 µM (inactive); in the assay on HOP-62, > 100 µM (inactive); with HOP-92 it was 3.98 µM (inactive); in the assay on HT-29, 75.5 µM (inactive); in the assay with Hs-578T, 7.35 µM (inactive). The GI50 in the assay with IGROV-1 was > 100 µM (inactive); in the assay with MCF7, 6.49 µM (inactive); with MDA-N, > 100 µM (inactive); with Malme-3M, > 100 µM (inactive); with NCI-H23, > 100 µM (inactive); with OVCAR-8, > 100 µM (inactive). Further, the GI50 was > 100 µM (inactive) in the assay with PC-3; 6.65 µM (inactive) in the assay on RPMI-8226; > 100 µM (inactive) with SF-539; > 100 µM (inactive) with SK-MEL-2; > 100 µM (inactive) in the assay on SK-MEL-5; 96.4 µM (inactive) in the assay on U-251.
As for `C[C@]12CC[C@H](O)C[C@H]1CC[C@@H]1[C@@H]2CC[C@]2(C)[C@@H](C3=CC(=O)OC3)CC[C@]12O` [DIGITOXIGENIN], the GI50 with A549 is 0.0183 µM (active); with EKVX it was 0.0873 µM (active); with HL-60 it was 0.0524 µM (active); in the assay with HOP-62 it was 0.04 µM (active); with HOP-92 it was 0.188 µM (active); in the assay with HT-29 it was 0.209 µM (active). Besides, the GI50 in the assay with Hs-578T was 0.0673 µM (active); in the assay with IGROV-1, 0.0668 µM (active); in the assay with MDA-N, 0.168 µM (active); in the assay with Malme-3M it was 0.0615 µM (active); in the assay on NCI-H23, 0.0338 µM (active); with OVCAR-8, 0.147 µM (active). The GI50 with PC-3 was 0.149 µM (active); with RPMI-8226 it was 0.0757 µM (active); with SF-539, 0.0356 µM (active); with SK-MEL-2, 0.321 µM (active); in the assay with SK-MEL-5, 0.0447 µM (active); in the assay with SR, 0.0531 µM (active). For the same compound, the GI50 in the assay on U-251 is 0.199 µM (active).
Take `CCC1CCC2c3c([nH]c4ccccc34)C3C(=O)N(c4ccc(OC)cc4)C(=O)C3C2C1` (stereo not given): the GI50 was 22.2 µM (inactive) in the assay with A549; 48.3 µM (inactive) with EKVX; 28.2 µM (inactive) in the assay on HL-60; 54.6 µM (inactive) in the assay with HOP-62; 42.3 µM (inactive) with HT-29; 22.2 µM (inactive) with Hs-578T. The GI50 in the assay with IGROV-1 was 64.1 µM (inactive); in the assay with MCF7, 36.6 µM (inactive); in the assay on MDA-N, 55.7 µM (inactive); in the assay on NCI-H23 it was > 100 µM (inactive); with OVCAR-8, 27.1 µM (inactive); in the assay with PC-3 it was > 100 µM (inactive). Further, the GI50 with RPMI-8226 was 55 µM (inactive); in the assay on SF-539 it was 34 µM (inactive); with SK-MEL-5, > 100 µM (inactive); in the assay on SR, 16.1 µM (inactive); with U-251 it was 18.7 µM (inactive).
As to `O=C(OCC12CC3CC(CC(C3)C1)C2)c1ccc(NCc2cc(O)ccc2O)cc1`, the GI50 in the assay on A549 was 2.67 µM (inactive); with EKVX it was 2.7 µM (inactive); with HL-60, 0.145 µM (active); in the assay with HOP-62, 4.62 µM (inactive); in the assay with HOP-92, 3.66 µM (inactive); with HT-29, 1.47 µM (inactive). Also, the GI50 is 2.14 µM (inactive) in the assay with Hs-578T; 0.131 µM (active) with IGROV-1; 1.08 µM (active) in the assay on MCF7; 2.81 µM (inactive) in the assay on MDA-N; 1.47 µM (inactive) with NCI-H23; 1.81 µM (inactive) in the assay on OVCAR-8. In addition, the GI50 with PC-3 is 0.713 µM (active); with RPMI-8226, 0.199 µM (active); in the assay with SF-539, 0.544 µM (active); with SK-MEL-2, 2.5 µM (inactive); in the assay with SK-MEL-5, 1.32 µM (inactive); in the assay on U-251, 1.02 µM (active).
On to `O=c1c(Cc2ccccc2Cc2c(O)oc3ccccc3c2=O)c(O)oc2ccccc12`, for which the GI50 in the assay on A549, in the assay on EKVX, with HL-60, in the assay on HOP-62, in the assay with HOP-92 and in the assay on HT-29 was > 100 µM (inactive) throughout. For the same compound, the GI50 with Hs-578T, with IGROV-1, in the assay with MCF7, with MDA-N, with Malme-3M and in the assay with NCI-H23 was > 100 µM (inactive) each time. The GI50 with OVCAR-8, in the assay on PC-3, in the assay on RPMI-8226, in the assay on SF-539, in the assay on SK-MEL-2 and in the assay with SK-MEL-5 was > 100 µM (inactive) throughout. For the same compound, in the assay with U-251, the GI50 is > 100 µM (inactive).
Take `Cc1c(/N=N/c2ccc(Cl)cc2)c(C)n(C2OC(CO)C(O)C(O)C2O)c(=S)c1C#N` (stereo not given): the GI50 in the assay with A549 was 22 µM (inactive); in the assay with EKVX it was 21.8 µM (inactive); in the assay with HL-60, 22.1 µM (inactive); with HOP-62 it was 18.1 µM (inactive); in the assay on HOP-92 it was 31.5 µM (inactive); in the assay with HT-29, 32.7 µM (inactive). The GI50 is 10.7 µM (inactive) in the assay with Hs-578T; 15.1 µM (inactive) with IGROV-1; 28.6 µM (inactive) in the assay on MCF7; 21.6 µM (inactive) in the assay on MDA-N; 22.5 µM (inactive) in the assay on Malme-3M; 30 µM (inactive) with NCI-H23. For the same compound, the GI50 in the assay with OVCAR-8 is 30.1 µM (inactive); with PC-3, 23.4 µM (inactive); in the assay with RPMI-8226, 16.4 µM (inactive); with SF-539 it was 20.4 µM (inactive); in the assay with SK-MEL-2 it was 14.7 µM (inactive); with SK-MEL-5 it was 8.45 µM (inactive). The GI50 in the assay with U-251 was 18.2 µM (inactive).
Take `Cc1ccc(/C=N/Nc2nc3ccccc3s2)s1`: the GI50 in the assay with A549 was > 100 µM (inactive); in the assay on EKVX, 50.7 µM (inactive); in the assay on HL-60, > 100 µM (inactive); with HOP-62 it was 26.2 µM (inactive); in the assay on HOP-92 it was > 100 µM (inactive); in the assay on HT-29, 40.8 µM (inactive). Besides, the GI50 with Hs-578T is 66.1 µM (inactive); with IGROV-1 it was 18.8 µM (inactive); with MCF7 it was 5.53 µM (inactive); with MDA-N, > 100 µM (inactive); with Malme-3M, > 100 µM (inactive); in the assay with NCI-H23, > 100 µM (inactive). The GI50 was > 100 µM (inactive) with OVCAR-8; 27.9 µM (inactive) in the assay on PC-3; > 100 µM (inactive) in the assay with RPMI-8226; 91.8 µM (inactive) in the assay with SF-539; > 100 µM (inactive) in the assay with SK-MEL-2; 38.9 µM (inactive) with SK-MEL-5. Also, the GI50 in the assay with U-251 was 81.1 µM (inactive).

These data come from ChEMBL document CHEMBL1201862, “PubChem BioAssay data set” (2004).
